Results: patent US11918577B2, “Dipeptidyl peptidase-4 inhibitors for topical eye treatment of retinal neurodegenerative diseases” (FUNDACIÓ HOSPITAL UNIVERSITARI VALL D'HEBRON - INSTITUT DE …, priority 2016, dated 2024)

Experiments:
db/db mice = conditions: orally administered, diabetic mice (db/db); cited from earlier work
C. Elegans = conditions: high glucose levels, no GLP-1R expression; cited from earlier work
db/db mouse [1] = experiment: Retinal apoptosis (TUNEL) in db/db mice, eye drops; type: in vivo; conditions: eye drops for two weeks, ONL, INL, GCL, vs vehicle
Source text: (§1) It has been reported that db/db mice reproduce the features of the neurodegenerative process that occurs in the human diabetic eye. Therefore, it is an appropriate model for testing neuroprotective drugs (according to Bogdanov et al., “The db/db mouse: a useful model for the study of diabetic retinal neurodegeneration”, PLoS One—2014, vol. no. 9(5):e97302). A total of 20 male db/db (BKS.Cg-+Lepr db/+Lepr db/OlaHsd) mice aged 10 weeks were purchased from Harlan Laboratories, Inc. In addition, 10 non-diabetic (db/+) mice matched by age were used as control group.
(§2) This study was approved by the Animal Care and Use Committee of VHIR (Vali d′Hebron Research Institute). All the experiments were performed in accordance with the tenets of the European Community (86/609/CEE) and ARVO (Association for Research in Vision and Ophthalmology).
The TUNEL (Terminal Transferase dUTP Nick-End Labeling) staining was carried out using the DeadEnd Fluorometric TUNEL System kit (PROMEGA, Madison, WI, USA). Cryosections of retina were permeabilised by incubation for 2 min on ice with 0.1% Triton X-100 in 0.1% sodium citrate, freshly prepared. The secondary antibody was Alexa 488 goat-anti-rabbit (Invitrogen, San Diego CA, USA). For evaluation by Laser Scanning Confocal microscopy the excitation wavelength was 488 nm and detection in the range of 515-565 nm (green) was used. […]

[2] = test system: GLP-1 and its main downstream messenger cAMP; experiment: Intraretinal content of GLP-1 and cAMP in db/db mice, eye drops (data not shown); type: in vivo, mouse
Source text: Without being bound to any theory, inventors consider that, in fact, the DPP-4 inhibitors themselves activate unrelated downstream GLP-1R pathways that might be involved in neuroprotection.

db/db mouse [3] = experiment: Blood-retinal barrier: albumin leakage (Evans blue, albumin immunofluorescence) in db/db mice, eye drops; type: in vivo; conditions: for albumin leakage (extravasation of albumin): vs vehicle
Source text: as §1, §2
In the lower panel FIG. 6(B) the quantification of albumin immunofluorescence of digital images with Fluoview FV 1000 Laser Scanning Microscope is shown. Immunohistochemistry images of Fluoview FV 1000 Laser Scanning Microscope from which quantification of albumina (in red) was done are not shown. The three type of samples tested were: D-Sham, D-SAXAGLIPTIN and C (db/+). Results are the mean±SD. *p <0.05 between db/db treated with vehicle (D-Sham) and the other groups.
(§3) The design and methodology were the same than used in Example 2.
In the lower panel FIG. 9(B) the quantification of albumin immunofluorescence of digital images with Fluoview FV 1000 Laser Scanning Microscope is shown. Immunohistochemistry images of Fluoview FV 1000 Laser Scanning Microscope from which quantification of albumina (in red) was done are not shown. The three type of samples tested were: D-Sham, D-Sitagliptin and C (db/+). Results are the mean±SD. *p<0.05 between db/db treated with vehicle (D-Sham) and the other groups.

db/db mouse [4] = experiment: Retinal glutamate quantification (UPLC) in db/db mice, eye drops; type: in vivo; conditions: p<0.05
Source text: as §1, §2
Quantification of glutamate was performed by reverse phase ultra-performance liquid chromatography (UPLC) (Acquity-UPLC, Waters) as aminoquinoline derivatives (AccQ-Tag chemistry, MassTrak AAA method and instruments, Waters, Milford, MA).
as §3

db/db mouse [5] = experiment: Glial activation (GFAP staining score) in retina of db/db mice, eye drops; type: in vivo; conditions: for GFAP score of the treated mice / reactive gliosis: eye drops for two weeks; for GFAP score of the treated mice: all cases, scale 1-5; for reactive gliosis: vs vehicle
Source text: as §1, §2
Glial activation was evaluated by Laser Scanning Confocal microscopy using specific antibodies against GFAP (Glial fibrillar acidic protein). Sections were fixed in acid methanol (−20° C.) for 2 min, followed by three washes with PBS, 5 min each. Sections were permeabilized with TBS-Triton X-100 0.025% and were incubated in blocker (1% BSA, and 10% goat serum in PBS) for 2 hours at room temperature. Sections were then incubated with rabbit anti-GFAP (Abcam Ltd, Cambridge, U.K.) (1:500 dilution prepared in blocking solution) overnight at 4° C. in a humid atmosphere. After three washes in PBS, 5 min each, the sections were incubated with secondary antibody Alexa 488 goat-anti-rabbit (Invitrogen) (1:200 dilution prepared in blocking solution). The sections were washed three times in PBS, counterstained with Hoestch and mounted with Mounting Medium Fluorescence (Prolong, Invitrogen) and mounted with a coverslip. Comparative digital images from samples were recorded with a Fluoview FV 1000 Laser Scanning Confocal Microscope Olympus using identical brightness and contrast settings.
To evaluate the degree of glial activation it was used a scoring system based on the extent of GFAP staining previously described (Anderson et al., “Glial and endothelial blood-retinal barrier responses to amyloid-beta in the neural retina of the rat”, Clin Ophthalmol—2008, vol. no. 2, pp.:801-816). This scoring system was as follows: Müller cell endfeet region/GCL only (score 1); Müller cell endfeet region/GCL plus a few proximal processes (score 2); Müller cell endfeet plus many processes, but not extending to ONL (score 3); Müller cell endfeet plus processes throughout with some in the ONL (score 4); Müller cell endfeet plus lots of dark processes from GCL to outer margin of ONL (score 5).
The scoring system was as follows: Müller cell endfeet region/GCL only (score 1); Müller cell endfeet region/GCL plus a few proximal processes (score 2); Müller cell endfeet plus many processes, but not extending to ONL (score 3); Müller cell endfeet plus processes throughout with some in the ONL (score 4); Müller cell endfeet plus lots of dark processes from GCL to outer margin of ONL (score 5). n=10 mice per group (5 retinal sections per mice).
as §3

[6] = test system: GLAST (glutamate-aspartate transporter); experiment: GLAST immunofluorescence in retina of db/db mice, eye drops; type: in vivo, mouse
Source text: as §1, §2
GLAST (glutamate-aspartate transporter), the main glutamate transporter, was evaluated by fluorescence microscopy using specific antibodies. GLAST was evaluated by fluorescence microscopy using specific antibodies [rabbit anti-GLAST (EAAT1) (1:100, Abcam ab416, Cambridge, UK).
as §3

db/db mouse [7] = experiment: Full field electroretinography (ERG) in db/db mice, eye drops; type: in vivo
Procedure: Full field electroretinography (ERG) recordings were measured using the Ganzfeld ERG platform (Phoenix Research Laboratories, Pleasanton, CA) following ISCEV (International Society for Clinical Electrophysiology of Vision) recommendations (according to Marmor et al., “Standard for clinical electroretinography.”, International Society for Clinical Electrophysiology of Vision (2004), Doc Ophthalmol—2004; vol. 108, pp.:107-114).

[8] = administered in the form of eye drops; cited from earlier work

Row | SMILES | apoptosis (TUNEL positive cells) in retinal layers (db/db mouse [1]) | intraretinal content of GLP-1 [2] | intraretinal content of cAMP [2] | albumin leakage (extravasation of albumin) (db/db mouse [3]) | retinal glutamate concentration vs diabetic mice treated with vehicle (db/db mouse [4]) | GFAP score of the treated mice (db/db mouse [5]) | reactive gliosis (db/db mouse [5]) | downregulation of GLAST induced by diabetes [6] | further results
1 | N[C@@H](CC(=O)N1CCc2c(nc(C(F)(F)F)nc2C(F)(F)F)C1)CN1CC(F)(F)CCC1=O [Gemigliptin, (3S)-3-amino-4-(5,5-difluoro-2-oxopiperidino)-1-[2,4-di(trifluoromethyl)-5,6,7,8-tetrahydropyrido[3,4-d]pyrimidin-7-yl]butan-1-one] | – | – | – | – | – | – | – | – | retinal pericyte apoptosis (db/db mice): ameliorate; vascular leakage (db/db mice): ameliorate
2 | CC#CCn1c(N2CCC[C@@H](N)C2)nc2c1c(=O)n(Cc1nc(C)c3ccccc3n1)c(=O)n2C [Linagliptin, 8-[(3R)-3-aminopiperidin-1-yl]-7-(but-2-yn-1-yl)-3-methyl-1-[(4-methylquinazolin-2-yl)methyl]-3,7-dihydro-1H-purine-2,6-dione] | – | – | – | – | – | – | – | – | neuroprotective effect (C. Elegans): neuroprotective effect
3 | N#C[C@@H]1C[C@@H]2C[C@@H]2N1C(=O)[C@@H](N)C12CC3CC(CC(O)(C3)C1)C2 [Saxagliptin, (1S,3S,5S)-2-[(2S)-2-amino-2-(3-hydroxy-1-adamantyl)acetyl]-2-azabicyclo[3.1.0]hexane-3-carbonitrile] | significant prevention of apoptosis in all retinal layers | significant increase | significant increase | prevented albumin leakage | significantly lower | < 3 | significant decrease | prevented | % positive GFAP labeling, score 1 (db/db mouse [5]; eye drops twice daily for 14 days, score 1: Müller cell endfeet region/GCL only): 95.00%; % positive GFAP labeling, score 2 (db/db mouse [5]; eye drops twice daily for 14 days, score 2: endfeet region/GCL plus a few proximal processes): 5.00%; % positive GFAP labeling, score 3 (db/db mouse [5]; eye drops twice daily for 14 days, score 3: endfeet plus many processes, not extending to ONL): 0.00%; % positive GFAP labeling, score 4 (db/db mouse [5]; eye drops twice daily for 14 days, score 4: endfeet plus processes throughout with some in the ONL): 0.00%; % positive GFAP labeling, score 5 (db/db mouse [5]; eye drops twice daily for 14 days, score 5: lots of dark processes from GCL to outer margin of ONL): 0.00%
4 | N[C@@H](CC(=O)N1CCn2c(nnc2C(F)(F)F)C1)Cc1cc(F)c(F)cc1F [Sitagliptin, (R)-4-oxo-4-[3-(trifluoromethyl)-5,6-dihydro[1,2,4]triazolo[4,3-a]pyrazin-7(8H)-yl]-1-(2,4,5-trifluorophenyl)butan-2-amine] | significant prevention of apoptosis in all retinal layers | significant increase | significant increase | prevented albumin leakage | prevented glutamate accumulation | ≤ 3 | significant decrease | abrogating the downregulation of GLAST | functional abnormalities measured by ERG (db/db mouse [7]): prevented functional abnormalities; sealing function of the BRB (db/db mouse [3]): preserved the sealing function of the BRB; GFAP score distribution (Table 2), score 1 (db/db mouse [5]; sitagliptin eye drops for two weeks, score 1): 85.00; GFAP score distribution (Table 2), score 2 (db/db mouse [5]; sitagliptin eye drops for two weeks, score 2): 10.00; GFAP score distribution (Table 2), score 3 (db/db mouse [5]; sitagliptin eye drops for two weeks, score 3): 5.00; GFAP score distribution (Table 2), score 4 (db/db mouse [5]; sitagliptin eye drops for two weeks, score 4): 0.00; GFAP score distribution (Table 2), score 5 (db/db mouse [5]; sitagliptin eye drops for two weeks, score 5): 0.00
5 | Cc1cc(-c2cc(O)ccc2Cl)cc2nnc(Nc3ccc(OCCN4CCCC4)cc3)nc12 [TG100572, 4-chloro-3-(5-methyl-3-{[4-(2-pyrrolidin-1-ylethoxy)phenyl]amino}-1,2,4-benzotriazin-7-yl)phenol] | – | – | – | – | – | – | – | – | reaching the target in the retina [8]: able to reach the target in the retina
